Ten compounds from patent US9457039B2, “2′-disubstituted nucleoside derivatives and methods of use thereof for the treatment of viral diseases” (Merck Sharp & Dohme Corp., priority 2012, dated 2016) can be followed below.

The first experiment concerns HCV replicon (1b) cells. Description: Cell-based HCV replicon assay (replicon RNA level by real time PCR, Taqman). The following applies: HCV replicon cells, harvested on day 3; EC50 = concentration giving ΔCT=1 over baseline; read-out: 1b EC50. Here is the method:
To measure cell-based anti-HCV activity of selected compounds of the present invention, replicon cells were seeded at 5000 cells/well in 96-well collagen I-coated Nunc plates in the presence of the test compound. Various concentrations of test compound, typically in 10 serial 2-fold dilutions, were added to the assay mixture, with the starting concentration ranging from 250 μM to 1 μM. The final concentration of dimethylsulfoxide was 0.5% fetal bovine serum was 5%, in the assay media. Cells were harvested on day 3 by the addition of 1× cell lysis buffer (Ambion cat #8721).
The replicon RNA level was measured using real time PCR (Taqman assay). The amplicon was located in 5B. The PCR primers were: 5B.2F, […] (SEQ ID. NO. 1); 5B.2R, […] (SEQ ID. NO. 2); the probe sequence was FAM-labeled […] (SEQ ID. NO. 3). GAPDH RNA was used as endogenous control and was amplified in the same reaction as NS5B (multiplex PCR) using primers and VIC-labeled probe recommended by the manufacturer (PE Applied Biosystem). The real-time RT-PCR reactions were run on ABI PRISM 7900HT Sequence Detection System using the following program: 48° C. for 30 minutes, 95° C. for 10 minutes, 40 cycles of 95° C. for 15 sec, 60° C. for 1 minute. The ΔCT values (CT5B-CTGAPDH) were plotted against the concentration of test compound and fitted to the sigmoid dose-response model using XLfit4 (MDL). […] Alternatively, to quantitate the absolute amount of replicon RNA, a standard curve was established by including serially diluted T7 transcripts of replicon RNA in the Taqman assay. All Taqman reagents were from […] Applied Biosystems. Such an assay procedure was described in detail in e.g. Malcolm et al., Antimicrobial Agents and Chemotherapy 50: 1013-1020 (2006).
Turning to `CC(C)OP1(=O)OC[C@H]2O[C@@H](c3cnn4c(N)ncnc34)[C@](C)(N)[C@@H]2O1` (stereo partly shown) [Compound 21], the EC50 is greater than 100 µM.
On the same count and under the same terms, then `CC(C)OP1(=O)OC[C@H]2O[C@@H](c3cnc4c(N)ncnn34)[C@](C)(N)[C@@H]2O1` (stereo partly shown) [Compound 19], with greater than 100 µM.

Staying with this experiment, now noted: Hepatitis C virus, 72 h; read-out: 1b EC50.
For `C[C@@]1(N)[C@H](O)[C@@H](CO)O[C@H]1c1cnn2c(N)ncnc12` [Compound 7], the EC50 was greater than 100 µM.
The same measure, in the same setting: then `C[C@@]1(N)[C@H](O)[C@@H](CO)O[C@H]1c1cnc2c(N)ncnn12` [Compound 6], with greater than 100 µM; and `CC(C)OP1(=O)OC[C@H]2O[C@@H](c3cnc4c(N)ncnn34)[C@](C)(N)[C@@H]2O1` (stereo partly shown) [Compound 18], with greater than 100 µM; and `C[C@@]1(N=[N+]=[N-])[C@H](O)[C@@H](CO)O[C@H]1c1cnc2c(N)ncnn12` [Compound 3], with greater than 100 µM.
The same measure, in the same setting: then `C[C@@]1(N=[N+]=[N-])[C@H](O)[C@@H](CO)O[C@H]1c1cnn2c(N)ncnc12` [Compound 4], with greater than 100 µM; and `CC(C)OP1(=O)OC[C@H]2O[C@@H](c3cnn4c(N)ncnc34)[C@](C)(N)[C@@H]2O1` (stereo partly shown) [Compound 20], with greater than 100 µM.

Staying with this experiment, now noted: read-out: 1b EC50; HCV replicon cells, harvested on day 3; EC50 = concentration giving ΔCT=1 over baseline.
Take `CC(C)OC(=O)[C@H](C)NP(=O)(OC[C@H]1O[C@@H](c2cnn3c(N)ncnc23)[C@](C)(N)[C@@H]1O)Oc1ccccc1` (stereo partly shown) [Compound 15]: the EC50 turned out to be 28 µM.
Still for that read-out and setting: then `CC(C)OC(=O)[C@H](C)NP(=O)(OC[C@H]1O[C@@H](c2cnn3c(N)ncnc23)[C@](C)(N)[C@@H]1O)Oc1ccccc1` (stereo partly shown) [Compound 14], with greater than 100 µM.
